Assay results: patent US8158670B2 (priority 1996, dated 2012)
Where two headings read alike, the source gives them in different places.

Experiments:
[1] = tested on: Vascular smooth muscle (BO54) cells; assay type: cell-based, baboon; conditions: 5 minute exposure
[2] = tested on: vascular smooth muscle cells of balloon-traumatized arteries; assay type: in vivo, pig; conditions: relative to a PBS control
[3] = tested on: vascular smooth muscle cells
[4] = pig, in vivo

C=C1[C@@H](C)[C@H]2[C@H](Cc3ccccc3)NC(=O)[C@]23OC(=O)/C=C/[C@H](O)CCC[C@@H](C)C/C=C/[C@H]3[C@@H]1O [cytochalasin B]
minimum effective dose (MED) [1]: 10 µg/mL | BRDU uptake (cell proliferation) [2]: inhibited BRDU uptake (i.e., cell proliferation) without killing the vascular smooth muscle cells | morphological cytotoxicity grade ([3]; 5 min + 24 hrs, 0.1 ug): 0 | morphological cytotoxicity grade ([3]; 5 min + 24 hrs, 1 ug): 0.5 | morphological cytotoxicity grade ([3]; 5 min + 24 hrs, 10 ug): 4 | morphological cytotoxicity grade ([3]; 5 min + 48 hrs, 0.1 ug): 0 | morphological cytotoxicity grade ([3]; 5 min + 48 hrs, 1 ug): 1 | morphological cytotoxicity grade ([3]; 5 min + 48 hrs, 10 ug): 4 | morphological cytotoxicity grade ([3]; 5 min + 72 hrs, 0.1 ug): 0 | morphological cytotoxicity grade ([3]; 5 min + 72 hrs, 1 ug): 1 | morphological cytotoxicity grade ([3]; 5 min + 72 hrs, 10 ug): 4.5 | morphological cytotoxicity grade ([3]; 5 min + 96 hrs, 0.1 ug): 0 | morphological cytotoxicity grade ([3]; 5 min + 96 hrs, 1 ug): 1 | morphological cytotoxicity grade ([3]; 5 min + 96 hrs, 10 ug): 5 | morphological cytotoxicity grade ([3]; 5 min + 120 hrs, 0.1 ug): 0 | morphological cytotoxicity grade ([3]; 5 min + 120 hrs, 1 ug): 1 | morphological cytotoxicity grade ([3]; 5 min + 120 hrs, 10 ug): 5 | morphological cytotoxicity grade ([3]; 24 hrs + 24 hrs, 0.01 ug): 0 | morphological cytotoxicity grade ([3]; 24 hrs + 24 hrs, 0.1 ug): 0.5 | morphological cytotoxicity grade ([3]; 24 hrs + 24 hrs, 1 ug): 3 | morphological cytotoxicity grade ([3]; 24 hrs + 48 hrs, 0.01 ug): 0 | morphological cytotoxicity grade ([3]; 24 hrs + 48 hrs, 0.1 ug): 1 | morphological cytotoxicity grade ([3]; 24 hrs + 48 hrs, 1 ug): 4 | morphological cytotoxicity grade ([3]; 24 hrs + 72 hrs, 0.01 ug): 0 | morphological cytotoxicity grade ([3]; 24 hrs + 72 hrs, 0.1 ug): 0.5 | morphological cytotoxicity grade ([3]; 24 hrs + 72 hrs, 1 ug): 4 | morphological cytotoxicity grade ([3]; 24 hrs + 96 hrs, 0.01 ug): 0 | morphological cytotoxicity grade ([3]; 24 hrs + 96 hrs, 0.1 ug): 0 | morphological cytotoxicity grade ([3]; 24 hrs + 96 hrs, 1 ug): 4 | morphological cytotoxicity grade ([3]; 24 hrs + 120 hrs, 0.01 ug): 0 | morphological cytotoxicity grade ([3]; 24 hrs + 120 hrs, 0.1 ug): 0 | morphological cytotoxicity grade ([3]; 24 hrs + 120 hrs, 1 ug): 4 | morphological cytotoxicity grade ([3]; Continuous 6 hrs, 0.01 ug): 0 | morphological cytotoxicity grade ([3]; Continuous 6 hrs, 0.1 ug): 0 | morphological cytotoxicity grade ([3]; Continuous 6 hrs, 1 ug): 3 | morphological cytotoxicity grade ([3]; Continuous 24 hrs (first listing, r16), 0.01 ug): 0 | morphological cytotoxicity grade ([3]; Continuous 24 hrs (first listing, r16), 0.1 ug): 1 | morphological cytotoxicity grade ([3]; Continuous 24 hrs (first listing, r16), 1 ug): 3 | morphological cytotoxicity grade ([3]; Continuous 24 hrs (second listing, r22), 0.01 ug): 0 | morphological cytotoxicity grade ([3]; Continuous 24 hrs (second listing, r22), 0.1 ug): 0 | morphological cytotoxicity grade ([3]; Continuous 24 hrs (second listing, r22), 1 ug): 3 | morphological cytotoxicity grade ([3]; Continuous 48 hrs, 0.01 ug): 0 | morphological cytotoxicity grade ([3]; Continuous 48 hrs, 0.1 ug): 1 | morphological cytotoxicity grade ([3]; Continuous 48 hrs, 1 ug): 3 | incidence of mural microthrombi [4]: decreased | lumen area of test region versus normal control segment of the same artery [4]: approximately two times as large | luminal area versus other test agents or controls [4]: larger luminal area | percent change in treated vs. normal luminal area (increase) [4]: ≈ 140% | toxicity to the vascular smooth muscle cells [4]: appeared to be toxic to the vascular smooth muscle cells | ± percent change in treated vs. normal luminal area [4]: ≈ 20%
